Laboratory results taken from PubChem BioAssay AID2060503 (Molecular Pharmacology Branch, DTP, NCI, 2025).

Test system: 817829-284-R-J1-PDC complex spheroids, viability
Assay: Anticancer human tumor 817829-284-R-J1-PDC patient-derived colon adenocarcinoma cell line growth inhibition [GQUAD]
Settings: for IC50: curve of first compound; for viability, T/C: stronger effect = lower value
In short: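 Viability of tumor cells grown as complex spheroids with endothelial and stromal cells, exposed to drug combinations. Top concentration at or near clinical Cmax (else 10 microM), diluted in half-log increments.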

[1] = second compound 0.0316 µM, first compound 0.0316 µM
[2] = second compound 0.0316 µM, first compound 0.1 µM
[3] = second compound 0.0316 µM, first compound 0.316 µM
[4] = second compound 0.0316 µM, first compound 1 µM
[5] = second compound 0.0316 µM, first compound 3.16 µM
[6] = second compound 0.0316 µM, first compound 10 µM
[7] = second compound 0.1 µM, first compound 0.0316 µM
[8] = second compound 0.1 µM, first compound 0.1 µM
[9] = second compound 0.1 µM, first compound 0.316 µM
[10] = second compound 0.1 µM, first compound 1 µM
[11] = second compound 0.1 µM, first compound 3.16 µM
[12] = second compound 0.1 µM, first compound 10 µM
[13] = second compound 0.316 µM, first compound 0.0316 µM
[14] = second compound 0.316 µM, first compound 0.1 µM
[15] = second compound 0.316 µM, first compound 0.316 µM
[16] = second compound 0.316 µM, first compound 1 µM
[17] = second compound 0.316 µM, first compound 3.16 µM
[18] = second compound 0.316 µM, first compound 10 µM
[19] = second compound 1 µM, first compound 0.0316 µM
[20] = second compound 1 µM, first compound 0.1 µM
[21] = second compound 1 µM, first compound 0.316 µM
[22] = second compound 1 µM, first compound 1 µM
[23] = second compound 1 µM, first compound 3.16 µM
[24] = second compound 1 µM, first compound 10 µM
[25] = second compound 3.16 µM, first compound 0.0316 µM
[26] = second compound 3.16 µM, first compound 0.1 µM
[27] = second compound 3.16 µM, first compound 0.316 µM
[28] = second compound 3.16 µM, first compound 1 µM
[29] = second compound 3.16 µM, first compound 3.16 µM
[30] = second compound 3.16 µM, first compound 10 µM
[31] = second compound 10 µM, first compound 0.0316 µM
[32] = second compound 10 µM, first compound 0.1 µM
[33] = second compound 10 µM, first compound 0.316 µM
[34] = second compound 10 µM, first compound 1 µM
[35] = second compound 10 µM, first compound 3.16 µM
[36] = second compound 10 µM, first compound 10 µM
[37] = second compound 0.0316 µM, first compound 0.000999 µM
[38] = second compound 0.0316 µM, first compound 0.00316 µM
[39] = second compound 0.0316 µM, first compound 0.00999 µM
[40] = second compound 0.0316 µM, first compound 0.0999 µM
[41] = second compound 0.1 µM, first compound 0.000999 µM
[42] = second compound 0.1 µM, first compound 0.00316 µM
[43] = second compound 0.1 µM, first compound 0.00999 µM
[44] = second compound 0.1 µM, first compound 0.0999 µM
[45] = second compound 0.316 µM, first compound 0.000999 µM
[46] = second compound 0.316 µM, first compound 0.00316 µM
[47] = second compound 0.316 µM, first compound 0.00999 µM
[48] = second compound 0.316 µM, first compound 0.0999 µM
[49] = second compound 1 µM, first compound 0.000999 µM
[50] = second compound 1 µM, first compound 0.00316 µM
[51] = second compound 1 µM, first compound 0.00999 µM
[52] = second compound 1 µM, first compound 0.0999 µM
[53] = second compound 3.16 µM, first compound 0.000999 µM
[54] = second compound 3.16 µM, first compound 0.00316 µM
[55] = second compound 3.16 µM, first compound 0.00999 µM
[56] = second compound 3.16 µM, first compound 0.0999 µM
[57] = second compound 10 µM, first compound 0.000999 µM
[58] = second compound 10 µM, first compound 0.00316 µM
[59] = second compound 10 µM, first compound 0.00999 µM
[60] = second compound 10 µM, first compound 0.0999 µM
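Note: spheroids exposed to agents for 7 days before readout.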
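Throughout, for viability, T/C: percent viability relative to DMSO vehicle control taken as 100%.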

SMILES: CC(C)n1c(=O)n(C)c2cnc3cc(F)c(-c4ccc(OCCCN5CCCCC5)nc4)cc3c21 + CN(C)c1ccc(Nc2c3ccc(NC(=O)CCN4CCCC4)cc3nc3cc(NC(=O)CCN4CCCC4)ccc23)cc1
- IC50 (second compound 0.0316 µM): > 10000 nM
- IC50 (second compound 0.1 µM): > 10000 nM
- IC50 (second compound 0.316 µM): > 10000 nM
- IC50 (second compound 1 µM): > 10000 nM
- IC50 (second compound 3.16 µM): > 10000 nM
- IC50 (second compound 10 µM): 414 nM
- viability, T/C [1]: 92.8%
- viability, T/C [2]: 104%
- viability, T/C [3]: 108%
- viability, T/C [4]: 107%
- viability, T/C [5]: 105%
- viability, T/C [6]: 116%
- viability, T/C [7]: 101%
- viability, T/C [8]: 107%
- viability, T/C [9]: 94.3%
- viability, T/C [10]: 101%
- viability, T/C [11]: 105%
- viability, T/C [12]: 108%
- viability, T/C [13]: 96.8%
- viability, T/C [14]: 98.3%
- viability, T/C [15]: 96%
- viability, T/C [16]: 102%
- viability, T/C [17]: 104%
- viability, T/C [18]: 110%
- viability, T/C [19]: 94.1%
- viability, T/C [20]: 109%
- viability, T/C [21]: 97.6%
- viability, T/C [22]: 96.2%
- viability, T/C [23]: 91.1%
- viability, T/C [24]: 94.6%
- viability, T/C [25]: 90.8%
- viability, T/C [26]: 105%
- viability, T/C [27]: 89.4%
- viability, T/C [28]: 70.8%
- viability, T/C [29]: 61.1%
- viability, T/C [30]: 54.5%
- viability, T/C [31]: 72.7%
- viability, T/C [32]: 61.9%
- viability, T/C [33]: 51.7%
- viability, T/C [34]: 46%
- viability, T/C [35]: 21%
- viability, T/C [36]: 13.2%

SMILES: CC[C@@]1(O)C(=O)OCc2c1cc1n(c2=O)Cc2cc3c(CN(C)C)c(O)ccc3nc2-1 + Cc1[nH]c2ccc(F)cc2c1-c1nc2c3cccnc3c3ncccc3c2[nH]1
- IC50 (second compound 0.0316 µM): 47.6 nM
- IC50 (second compound 0.1 µM): 60.3 nM
- IC50 (second compound 0.316 µM): 51.7 nM
- IC50 (second compound 1 µM): 52.2 nM
- IC50 (second compound 3.16 µM): 26.5 nM
- IC50 (second compound 10 µM): < 0.999 nM
- viability, T/C [37]: 119%
- viability, T/C [38]: 84.5%
- viability, T/C [39]: 92.7%
- viability, T/C [1]: 51.8%
- viability, T/C [40]: 34.9%
- viability, T/C [3]: 26.6%
- viability, T/C [41]: 98.8%
- viability, T/C [42]: 104%
- viability, T/C [43]: 88.6%
- viability, T/C [7]: 70.9%
- viability, T/C [44]: 33.1%
- viability, T/C [9]: 27.1%
- viability, T/C [45]: 90%
- viability, T/C [46]: 111%
- viability, T/C [47]: 101%
- viability, T/C [13]: 63.6%
- viability, T/C [48]: 34.2%
- viability, T/C [15]: 26.1%
- viability, T/C [49]: 91.8%
- viability, T/C [50]: 110%
- viability, T/C [51]: 109%
- viability, T/C [19]: 64.8%
- viability, T/C [52]: 32.4%
- viability, T/C [21]: 29.1%
- viability, T/C [53]: 108%
- viability, T/C [54]: 111%
- viability, T/C [55]: 95.1%
- viability, T/C [25]: 41.9%
- viability, T/C [56]: 18.2%
- viability, T/C [27]: 15.7%
- viability, T/C [57]: 11%
- viability, T/C [58]: 22.5%
- viability, T/C [59]: 26.1%
- viability, T/C [31]: 7.2%
- viability, T/C [60]: 5.98%
- viability, T/C [33]: 5.1%

SMILES: CC(C)(O)C1CCC(Nc2ccc3ncc(-c4cccc(C(F)(F)F)c4)n3n2)CC1 (stereo not drawn) + Cc1[nH]c2ccc(F)cc2c1-c1nc2c3cccnc3c3ncccc3c2[nH]1
- IC50 (second compound 0.0316 µM): 2500 nM
- IC50 (second compound 0.1 µM): 1310 nM
- IC50 (second compound 0.316 µM): 955 nM
- IC50 (second compound 1 µM): 620 nM
- IC50 (second compound 3.16 µM): < 31.6 nM
- IC50 (second compound 10 µM): < 31.6 nM
- viability, T/C [1]: 109%
- viability, T/C [2]: 104%
- viability, T/C [3]: 88.8%
- viability, T/C [4]: 64%
- viability, T/C [5]: 32.5%
- viability, T/C [6]: 57.5%
- viability, T/C [7]: 94.6%
- viability, T/C [8]: 110%
- viability, T/C [9]: 104%
- viability, T/C [10]: 51.9%
- viability, T/C [11]: 25.5%
- viability, T/C [12]: 61.6%
- viability, T/C [13]: 106%
- viability, T/C [14]: 111%
- viability, T/C [15]: 84.5%
- viability, T/C [16]: 52%
- viability, T/C [17]: 25.7%
- viability, T/C [18]: 54.1%
- viability, T/C [19]: 107%
- viability, T/C [20]: 109%
- viability, T/C [21]: 78.9%
- viability, T/C [22]: 30.9%
- viability, T/C [23]: 8.2%
- viability, T/C [24]: 32.7%
- viability, T/C [25]: 3.3%
- viability, T/C [26]: 3.58%
- viability, T/C [27]: 2.98%
- viability, T/C [28]: 1.34%
- viability, T/C [29]: 0.58%
- viability, T/C [30]: 1.69%
- viability, T/C [31]: 2.48%
- viability, T/C [32]: 2.78%
- viability, T/C [33]: 2.18%
- viability, T/C [34]: 1.41%
- viability, T/C [35]: 0.83%
- viability, T/C [36]: 1.5%

SMILES: CCc1c2c(nc3ccc(O)cc13)-c1cc3c(c(=O)n1C2)COC(=O)[C@]3(O)CC + Cc1cnc(CNC(=O)c2c(=O)c3ccc(N4CCCN(C)CC4)nc3n3c2sc2ccccc23)cn1
- IC50 (second compound 0.0316 µM): < 0.999 nM
- IC50 (second compound 0.1 µM): < 0.999 nM
- IC50 (second compound 0.316 µM): < 0.999 nM
- IC50 (second compound 1 µM): < 0.999 nM
- IC50 (second compound 3.16 µM): < 0.999 nM
- IC50 (second compound 10 µM): < 0.999 nM
- viability, T/C [37]: 40.3%
- viability, T/C [38]: 25.9%
- viability, T/C [39]: 28.9%
- viability, T/C [1]: 14.1%
- viability, T/C [40]: 8.12%
- viability, T/C [3]: 3.77%
- viability, T/C [41]: 33.5%
- viability, T/C [42]: 29.6%
- viability, T/C [43]: 18.2%
- viability, T/C [7]: 15.5%
- viability, T/C [44]: 6.99%
- viability, T/C [9]: 2.92%
- viability, T/C [45]: 21.6%
- viability, T/C [46]: 27.2%
- viability, T/C [47]: 22%
- viability, T/C [13]: 14.4%
- viability, T/C [48]: 7.47%
- viability, T/C [15]: 2.52%
- viability, T/C [49]: 19.5%
- viability, T/C [50]: 25.2%
- viability, T/C [51]: 17.8%
- viability, T/C [19]: 13.5%
- viability, T/C [52]: 6.88%
- viability, T/C [21]: 0.52%
- viability, T/C [53]: 20.3%
- viability, T/C [54]: 17.8%
- viability, T/C [55]: 15.5%
- viability, T/C [25]: 10.7%
- viability, T/C [56]: 3.99%
- viability, T/C [27]: 0.15%
- viability, T/C [57]: 0.09%
- viability, T/C [58]: 0.14%
- viability, T/C [59]: 0.17%
- viability, T/C [31]: 0.14%
- viability, T/C [60]: 0.16%
- viability, T/C [33]: 0.16%
